The source of these data is patent US20230330058A1, “SENOLYTIC COMPOUNDS AND COMPOSITIONS” (NUCHIDO LIMITED, priority 2020, published 2023).

The test system of data set [1] is senescent Human Dermal Fibroblasts (HDFs) versus non-senescent ('young') HDFs. In words: Senescence-specific assay: co-culture of labelled senescent and non-senescent cells, automated counting before and after 72 h incubation. The class given is cell-based. Conditions: for selective senolytic activity: single agent, killing senescent cells over non-senescent cells; for increase of the senolytic effect of navitoclax: uncoupler together with navitoclax, efficacy at lower navitoclax concentrations (FIGS. 11, 12; senescent and proliferating cells); for senolytic activity in galactose media: glycolysis suppressed (FIGS. 5, 13); for selective senolytic activity at concentrations reached in humans: concentrations already known to be reached safely in humans, achievable blood plasma concentrations (FIG. 3). On the procedure:
We developed a senescence-specific assay, employing automated counting of differentially labelled senescent and non-senescent cells in co-culture, before and after 72h incubation with each molecule or molecule combination.
Human Dermal Fibroblasts (HDFs) expressing pSLIEW (Green), or mCherry (Red) are used in the assay. The cells expressing pSLIEW (Green) are subjected to 20 Gy X-irradiation to induce senescence.
The test molecule is added to the co-culture, and the number of green and red cells are counted before and after 72 h incubation. A selective senolytic would be expected to diminish the proportion of green-expressing senescent cells, while leaving the number of red-expressing young cells unchanged or increased due to replication during the incubation period.
The experiments were carried out in 96-well plates, and the cells were imaged using fluorescent microscopy. The images were analysed with ICY software for automated cell counting, and both numbers of labelled cells and their other visible characteristics such as size were recorded.

For data set [2], the system named is aging in animals. Conditions: cited from earlier work.
The subject of data set [3] is platelets. Conditions: originally intended as anti-cancer drugs; cited from earlier work.
The test system of data set [4] is senescent cells. To be noted: cited from earlier work.

SMILES strings stand for the structures. Entries after “also recorded” stand apart in the source; their conditions may differ. Counter-ions that a name gives are not always drawn.

In the case of `N#CC(C#N)=NNc1ccc(OC(F)(F)F)cc1` [FCCP, Carbonyl cyanide-p-trifluoromethoxyphenylhydrazone], in data set [1], the selective senolytic activity entry is recorded as “selective senolytic activity” and the “increase of the senolytic effect of navitoclax” value is reported as “increases the senolytic effect of navitoclax”.

Consider `CC(=O)Oc1ccccc1C(=O)Nc1ncc([N+](=O)[O-])s1` [nitazoxanide], for which the “senolytic activity in galactose media” value in data set [1] is given as “selective senolytic activity”.

In the case of `O=C(Nc1ccc([N+](=O)[O-])cc1Cl)c1cc(Cl)ccc1O` [niclosamide], in data set [1], the “selective senolytic activity at concentrations reached in humans” value was “selective senolytic activity” and the selective senolytic activity entry is “showed selective senolytic activity”. The “selective senolytic activity at concentrations reached in humans” value in data set [1] (listed as Niclosamide) is “selectively senolytic at concentrations that are already known to be reached safely in humans”.

In the case of `NC(=O)c1cccnc1` [nicotinamide], the selective senolytic activity result in data set [1] is recorded as “showed selective senolytic activity”.

`OCCN1CCN(CCCN2c3ccccc3Sc3ccc(C(F)(F)F)cc32)CC1` [fluphenazine dihydrochloride]: the selective senolytic activity entry in data set [1] (dihydrochloride) is given as “showed selective senolytic activity”; in data set [1] (listed as fluphenazine hydrochloride, dihydrochloride), “selective senolytic activity”.

Consider `CN(C)C(=N)N=C(N)N` [metformin], for which, in data set [1], the “senolytic activity in galactose media” value is listed as “senolytic at physiological doses if glycolysis is suppressed; also recorded: senolytic when glycolysis is suppressed; also recorded: displays senolytic activity”. In addition, the “effect on aging in animals” value in data set [2] is “can delay aging in animals”.

As for `C=CCc1ccc(O)c(-c2cc(CC=C)ccc2O)c1` [magnolol], the selective senolytic activity result in data set [1] was “showed selective senolytic activity”.

On to `CC(C)(C)c1cc(O)c(C(C)(C)C)cc1O` [BTBHQ, 2,5-di-tert-butylhydroquinone], for which the selective senolytic activity result in data set [1] is “showed selective senolytic activity”.

For the compound `Cc1c(-c2ccc(N3CCc4cccc(C(=O)Nc5nc6ccccc6s5)c4C3)nc2C(=O)O)cnn1CC12CC3CC(CC(C3)C1)C2` [A-1331852, 3-(1-(((3r,5r,7r)-adamantan-1-yl)methyl)-5-methyl-1H-pyrazol-4-yl)-6-(8-(benzo[d]thiazol-2-ylcarbamoyl)-3,4-dihydroisoquinolin-2(1H)-yl)picolinic acid], the side-effect profile result in data set [3] is “thrombocytopaenia”.

With `N#CC(C#N)=NNc1cccc(Cl)c1` [CCCP, Carbonyl cyanide m-chlorophenyl hydrazone], in data set [1], the “increase of the senolytic effect of navitoclax” value is “increases the senolytic effect of navitoclax”.

Turning to `O=[N+]([O-])c1ccc(O)c([N+](=O)[O-])c1` [DNP, 2,4-Dinitrophenol], the selective senolytic activity result in data set [1] is recorded as “selective senolytic activity”.

For the compound `C=CCc1ccc(O)c(-c2ccc(O)c(CC=C)c2)c1` [honokiol], in data set [1], the selective senolytic activity entry is reported as “showed selective senolytic activity”.

As to `O=c1cc(-c2ccc(O)cc2)oc2cc(O)cc(O)c12` [apigenin], the selective senolytic activity entry in data set [1] is “showed selective senolytic activity”.

In the case of `CN1C(=O)C(C(=O)Nc2nncs2)c2cc3occc3cc21` (stereo not drawn) [BML-288], the selective senolytic activity result in data set [1] is “showed selective senolytic activity”.

As to `CN1CCc2ccccc2Cc2[nH]c3ccccc3c2CC1` [LE300, 6,7,8,9,14,15-hexahydro-7-methyl-5H-indolo[3,2-f][3]benzazecine], the selective senolytic activity entry in data set [1] is reported as “showed selective senolytic activity”.

Turning to `CC1(C)CCC(c2ccc(Cl)cc2)=C(CN2CCN(c3ccc(C(=O)NS(=O)(=O)c4ccc(N[C@H](CCN5CCOCC5)CSc5ccccc5)c(S(=O)(=O)C(F)(F)F)c4)cc3)CC2)C1` [navitoclax], in data set [3], the side-effect profile entry was “thrombocytopaenia”. Also, the “senolytic agent in animal studies” value in data set [4] is listed as “inducing apoptosis in senescent cells, but less in non-senescent cells”.

Take `O=C(O[C@@H]1Cc2c(O)cc(O)cc2O[C@@H]1c1cc(O)c(O)c(O)c1)c1cc(O)c(O)c(O)c1` [EGCG, epigallocatechin gallate]: in data set [1], the selective senolytic activity result is reported as “showed selective senolytic activity”.

Take `C[C@@H]1CC[C@H]2[C@@H](C)C(=O)O[C@@H]3O[C@@]4(C)CC[C@@H]1[C@]32OO4` [Artemisinin]: in data set [1], the selective senolytic activity result is recorded as “showed selective senolytic activity”.

For `O=C(O)CCCCC1CCSS1` (stereo not drawn) [alpha lipoic acid], the selective senolytic activity entry in data set [1] is “showed selective senolytic activity”.

In the case of `O=c1c(O)c(-c2ccc(O)c(O)c2)oc2cc(O)cc(O)c12` [quercetin], in data set [1], the selective senolytic activity result is listed as “showed selective senolytic activity”.

`Oc1ccc(C=Cc2cc(O)cc(O)c2)cc1` [resveratrol]: the selective senolytic activity result in data set [1] was “showed selective senolytic activity”.
